Data on eight compounds can be found in patent US7112602B2, “Methods of treating undesired angiogenesis with 2-methyl-EM-138” (The Children's Medical Center Corporation, priority 1998, dated 2006).

Marks after values point to notes of the source that are not given here.

In data set [1] the test system is B16-BL6 melanoma cells. The experiment in a line: B16-BL6 melanoma pulmonary metastasis model, intraperitoneal treatment. As to conditions: for angiogenesis inhibitory activity (comparison in words): B16-BL6 metastasis studies; for angiogenesis inhibitory activity (comparison in words) / T/C (ratio of lung metastases of treated vs. control animals) / Mean Number of Pulmonary Metastases / % Inhibition / IC50 (50% inhibition of surface metastasis): i.p.; for T/C (ratio of lung metastases of treated vs. control animals): 0.4 mmol/kg in 2.8% DMSO; for T/C (ratio of lung metastases of treated vs. control animals) / % Inhibition: from 72 hours after tumor cells, day 14; for Mean Number of Pulmonary Metastases / % Inhibition: 1.0 ml of 5.0 mg/ml in 2.8% DMSO; for Mean Number of Pulmonary Metastases: four times a day from 72 hours after tumor cells, surface lung metastases counted day 14; for % Inhibition: versus DMSO control, p < 0.01; for IC50 (50% inhibition of surface metastasis): varying doses, average of three experiments, 7-R-(+) tested once at each dose, up to 0.8 mmol/kg; for anti-tumor activity (summary in words): summary of Tables 1 and 2, at the tested doses. Type of data set: in vivo, C57B1/6 mice. As to the method:
B16-BL6 melanoma cells (5×10^4) were injected intravenously into the tail veins of C57B1/6 mice. The mice were given intraperitoneal (i.p.) treatments of either 1.0 ml 2.8% DMSO alone (control), 1.0 ml (5.0 mg/ml 2.8% DMSO) 2-phthalimidinoglutaric acid (EM-138) in DMSO, or 1.0 ml (5.0 mg/ml 2.8%) 2-methyl-2-phthalimidinoglutaric acid (2-Me-EM-138) in DMSO four times a day beginning 72 hours after injection of the tumor cells. Fourteen days after tumor cell inoculation, the lungs were removed from the mice and the surface pulmonary metastases were counted.
B16-BL6 melanoma cells (5×10^4) were injected intravenously into the tail veins of C57B1/6 mice. The mice were given intraperitoneal (i.p.) treatments of either 1.0 ml 2.8% DMSO alone (control), 1.0 ml (5.0 mg/ml) DL-2-methyl-2-phthalimidinoglutaric acid (racemate) in 2.8% DMSO, 1.0 ml (5.0 mg/ml) (R)-(+)-2-methyl-2-phthalimidinoglutaric acid (JS-2-13-P1) in 2.8% DMSO, or (S)-(−)-2-methyl-2-phthalimidinoglutaric acid (JS-2-13-P2) in 2.8% DMSO four times a day beginning 72 hours after injection of the tumor cells. Fourteen days after tumor cell inoculation, the lungs were removed from the mice and the surface pulmonary metastases were counted.
B16-BL6 melanoma cells (5×10^4) were injected intravenously into the tail veins of C57B1/6 mice. The mice were given intraperitoneal (i.p.) treatments of one of the following solutions four times a day beginning 72 hours after injection of the tumor cells. [drawing 4] • 1.0 ml of thalidomide in 2.8% DMSO • 1.0 ml of 3′-hydroxy-2-phthalimidinoglutaric acid in 2.8% DMSO (compound 5a) • 1.0 ml of 4′-hydroxy-2-phthalimidinoglutaric acid in 2.8% DMSO (compound 5b) • 1.0 ml of 2-phthalimidinoglutaric acid (EM-138) in 2.8% DMSO (compound 5c) • 1.0 ml of DL-2-methyl-2-phthalimidinoglutaric acid (racemate) in 2.8% DMSO (compound 7) • 1.0 ml of (R)-(+)-2-methyl-2-phthalimidinoglutaric acid (JS-2-13-P1) in 2.8% DMSO (compound 7-R-(+)) • 1.0 ml of (S)-(−)-2-methyl-2-phthalimidinoglutaric acid (JS-2-13-P2) in 2.8% DMSO (compound 7-S-(−))
A dose of 0.4 mmol/kg was used for each compound tested. Fourteen days after tumor cell inoculation, the lungs were removed from the mice and the surface pulmonary metastases were counted.
This experiment was repeated at varying doses. The in the following table represent the average values for three of the experiment.

Data set [2] has as its system vascular endothelial cell proliferation. Conditions: endothelial versus tumor cell proliferation in vitro; cited from earlier work.
Data set [3] relates to B16-BL6 melanoma cells. The experiment in a line: B16-BL6 melanoma pulmonary metastasis model, oral (gavage) treatment. It is filed as in vivo, C57B1/6 mice. As to the method: B16-BL6 melanoma cells (5×10^4) were injected intravenously into the tail veins of C57B1/6 mice. Three days later, the mice received a gavage treatment with 0.8 mmol/kg of 2-phthalimidinoglutaric acid (EM-138). The mice received either a single treatment, five treatments on alternate days, or one treatment every day for eleven days. Fourteen days after tumor cell inoculation, the lungs were removed from the mice and the surface pulmonary metastases were counted. The values shown are the mean of 5 mice per group. The bars on the graph represent the standard deviation.
B16-BL6 melanoma cells (5×10^4) were injected intravenously into the tail veins of C57B1/6 mice. The mice were given a single oral treatment of 2-phthalimidinoglutaric acid (EM-138) of 0.8 mmol/kg. The treatment was initiated one day prior to tumor cells or on day 1, 2, 3, 5, or 7 after tumor cells. Fourteen days after tumor cell inoculation, the lungs were removed from the mice and the surface pulmonary metastases were counted. The values shown are the mean of 5 mice per group. The bars on the graph represent the standard deviation.

Data set [4] in a line: Resistance to hydrolysis. Type of data set: physicochemical. As to conditions: compared with thalidomide.
The nature of data set [5]: Racemization of enantiomers. Type of data set: physicochemical.

What is called % Inhibition is the change of the read-out against control, counted positive when it falls. A higher % Inhibition goes with strong suppression. With `CC(CCC(=O)O)(C(=O)O)N1Cc2ccccc2C1=O` (racemic) [Compound 7, DL-2-methyl-2-phthalimidinoglutaric acid], in data set [1], the “angiogenesis inhibitory activity (comparison in words)” value is recorded as “as potent an inhibitor of angiogenesis as EM-138”, the “T/C (ratio of lung metastases of treated vs. control animals)” value is 0.25, the “Mean Number of Pulmonary Metastases” value is 84 and the “% Inhibition” value was 60%. In data set [1], the “IC50 (50% inhibition of surface metastasis)” value is given as 0.2^a mmol/kg and the “anti-tumor activity (summary in words)” value is reported as “considerably greater inhibitory activity than thalidomide”.

Turning to `C[C@@](CCC(=O)O)(C(=O)O)N1Cc2ccccc2C1=O` [7-R-(+), (R)-(+)-2-methyl-2-phthalimidinoglutaric acid], in data set [1], the “T/C (ratio of lung metastases of treated vs. control animals)” value is 0.7, the “IC50 (50% inhibition of surface metastasis)” value is listed as “No activity^b” and the “anti-tumor activity (summary in words)” value is “little or no activity”.

With `C[C@](CCC(=O)O)(C(=O)O)N1Cc2ccccc2C1=O` [7-S-(−), (S)-(−)-2-methyl-2-phthalimidinoglutaric acid], in data set [1], the “angiogenesis inhibitory activity (comparison in words)” value is recorded as “greater angiogenesis inhibitory activity than does the (R) isomer”, the “T/C (ratio of lung metastases of treated vs. control animals)” value worked out at 0.15 and the “IC50 (50% inhibition of surface metastasis)” value is 0.1^a mmol/kg.

`CO[C@@H]1[C@H](OC(=O)NC(=O)CCl)CC[C@]2(CO2)[C@H]1[C@@]1(C)O[C@@H]1CC=C(C)C` [AGM-1470]: the “half-maximal inhibition of endothelial cell proliferation at lower concentration than tumor cell proliferation” value in data set [2] is listed as 4 logs.

As for `O=C(O)CCC(C(=O)O)N1C(=O)c2ccccc2C1O` (centres unmarked) [Compound 5a, 3′-hydroxy-2-phthalimidinoglutaric acid], the “T/C (ratio of lung metastases of treated vs. control animals)” value in data set [1] was determined as 0.95.

For the compound `O=C(O)CCC(C(=O)O)N1Cc2c(O)cccc2C1=O` (centres unmarked) [Compound 5b, 4′-hydroxy-2-phthalimidinoglutaric acid], the “T/C (ratio of lung metastases of treated vs. control animals)” value in data set [1] is recorded as 0.9.

For the compound `O=C(O)CCC(C(=O)O)N1Cc2ccccc2C1=O` (centres unmarked) [Compound 5c, 2-phthalimidinoglutaric acid], in data set [3] (dose of 0.8 mmol/kg/day), the inhibition of metastasis result is on record as “greater than 90%”. Moreover, the inhibition of metastasis in data set [3] (single dose) is recorded as 50%. Besides, in data set [1], the “T/C (ratio of lung metastases of treated vs. control animals)” value stood at 0.2, the “Mean Number of Pulmonary Metastases” value was 85, the “% Inhibition” value is listed as 60% and the “IC50 (50% inhibition of surface metastasis)” value is on record as 0.2^a mmol/kg. Also, the “anti-tumor activity (summary in words)” value in data set [1] is reported as “considerably greater inhibitory activity than thalidomide”. Moreover, in data set [4], the resistance to hydrolysis entry is “relatively resistant to hydrolysis”. For the same compound, the racemization of enantiomers entry in data set [5] was “readily racemize”.

Turning to `O=C1CCC(N2C(=O)c3ccccc3C2=O)C(=O)N1` (centres unmarked) [Thalidomide, thalidomide, reference compound], in data set [1], the “T/C (ratio of lung metastases of treated vs. control animals)” value is on record as 0.9 and the “IC50 (50% inhibition of surface metastasis)” value is 3.2^a mmol/kg.
